# Assays:
# [1] = tested on: PGEA-induced bronchoconstriction (R2); assay: Inhibition of PGEA-induced bronchoconstriction in the guinea pig in vivo; conditions: Cavia porcellus, IV injection
# [2] = tested on: arachidonic acid induced bronchoconstriction; assay: Arachidonic acid induced bronchoconstriction and hypotension in the anaesthetized dog; type: in vivo; conditions: intraduodenal administration
compound,measurement,setting,value
"O=S1(=O)c2ccccc2COc2ccc(CO)cc21 [Example 13, 2-Hydroxymethy!-6H-dibenz[b,e][1,4]oxathiepin-11,11-dioxide]",ED50,[1],10.5 mg/kg
same,inhibition of arachidonic acid induced bronchoconstriction,[2],inhibited
same,inhibition of arachidonic acid induced hypotension,[2],not

# Reference: patent EP0105692B1, “6-H-dibenz(b,e)(1,4)oxathiepin derivatives and their preparation” (MERCK FROSST CANADA INC., priority 1982, dated 1984)
